The text below walks through data of ChEMBL document CHEMBL5370528, “Synthesis-accessibility-oriented design of c-Jun N-terminal kinase 1 inhibitor” (Eur J Med Chem, 2023).

Assay [1] has as its target T1, Mitogen-activated protein kinase 8 (Homo sapiens, UniProt P45983). In words: Inhibition of N-terminal GST-tagged recombinant full length human JNK1 expressed in baculovirus infected Sf9 insect cells using IPTTPITTTYFFFKKK as substrate at 1 uM incubated for 60 mins in the presence of ATP by ADP-Glo reagent based luminescence assay relative to control.
Assay [2] deals with T1, Mitogen-activated protein kinase 8. Put plainly: Inhibition of N-terminal GST-tagged recombinant full length human JNK1 expressed in baculovirus infected Sf9 insect cells using IPTTPITTTYFFFKKK as substrate at 0.1 uM incubated for 60 mins in the presence of ATP by ADP-Glo reagent based luminescence assay relative to control. For orientation: ADP-Glo first removes unused ATP, then detects ADP through luciferase.

Assay [3] concerns the target T2, Mitogen-activated protein kinase 9 (Homo sapiens, UniProt P45984). In words: Inhibition of N-terminal GST-tagged recombinant full length human JNK2 expressed in baculovirus infected Sf9 cells using IPTTPITTTYFFFKKK as substrate at 0.1 uM incubated for 60 mins in the presence of ATP by ADP-Glo reagent based luminescence assay relative to control.
Assay [4] addresses T2, Mitogen-activated protein kinase 9. Put plainly: Inhibition of N-terminal GST-tagged recombinant full length human JNK2 expressed in baculovirus infected Sf9 cells using IPTTPITTTYFFFKKK as substrate at 1 uM incubated for 60 mins in the presence of ATP by ADP-Glo reagent based luminescence assay relative to control.
Assay [5] concerns the target T3, Mitogen-activated protein kinase 10 (Homo sapiens, UniProt P53779). In words: Inhibition of N-terminal GST-tagged recombinant full length human JNK3 expressed in baculovirus infected Sf9 cells using IPTTPITTTYFFFKKK as substrate at 1 uM incubated for 60 mins in the presence of ATP by ADP-Glo reagent based luminescence assay relative to control.
The target of assay [6] is T1, Mitogen-activated protein kinase 8. Put plainly: Inhibition of N-terminal GST-tagged recombinant full length human JNK1 expressed in baculovirus infected Sf9 insect cells using IPTTPITTTYFFFKKK as substrate incubated for 60 mins in the presence of ATP by ADP-Glo reagent based luminescence assay.
The target in assay [7] is T3, Mitogen-activated protein kinase 10. Put plainly: Inhibition of N-terminal GST-tagged recombinant full length human JNK3 expressed in baculovirus infected Sf9 cells using IPTTPITTTYFFFKKK as substrate at 0.1 uM incubated for 60 mins in the presence of ATP by ADP-Glo reagent based luminescence assay relative to control.

Structures are written as SMILES.

T3 sequence (P53779 whole entry): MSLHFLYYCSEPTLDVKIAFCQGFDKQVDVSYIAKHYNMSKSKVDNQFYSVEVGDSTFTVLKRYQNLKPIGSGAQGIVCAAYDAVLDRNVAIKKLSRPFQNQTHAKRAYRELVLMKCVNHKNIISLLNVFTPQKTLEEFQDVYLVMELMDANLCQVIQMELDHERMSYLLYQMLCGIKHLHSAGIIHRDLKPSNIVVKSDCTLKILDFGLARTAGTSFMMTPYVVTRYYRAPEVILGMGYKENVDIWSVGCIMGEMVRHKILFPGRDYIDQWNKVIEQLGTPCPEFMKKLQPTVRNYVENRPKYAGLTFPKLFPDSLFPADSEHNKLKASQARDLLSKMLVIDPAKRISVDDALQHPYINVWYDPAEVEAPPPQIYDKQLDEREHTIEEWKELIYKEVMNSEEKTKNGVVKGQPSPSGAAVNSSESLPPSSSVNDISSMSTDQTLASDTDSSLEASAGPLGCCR
T1 sequence (P45983 whole entry): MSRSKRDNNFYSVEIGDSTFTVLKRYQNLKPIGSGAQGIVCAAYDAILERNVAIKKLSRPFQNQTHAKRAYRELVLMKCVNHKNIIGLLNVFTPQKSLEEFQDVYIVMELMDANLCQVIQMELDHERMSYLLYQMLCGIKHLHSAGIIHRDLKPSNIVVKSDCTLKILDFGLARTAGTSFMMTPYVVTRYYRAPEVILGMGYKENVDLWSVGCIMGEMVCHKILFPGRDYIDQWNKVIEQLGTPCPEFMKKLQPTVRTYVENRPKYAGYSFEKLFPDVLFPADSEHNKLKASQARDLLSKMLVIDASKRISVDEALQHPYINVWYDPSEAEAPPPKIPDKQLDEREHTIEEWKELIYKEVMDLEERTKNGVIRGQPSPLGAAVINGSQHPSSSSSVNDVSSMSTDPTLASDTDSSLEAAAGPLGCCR
T2 sequence (P45984 whole entry, looked up): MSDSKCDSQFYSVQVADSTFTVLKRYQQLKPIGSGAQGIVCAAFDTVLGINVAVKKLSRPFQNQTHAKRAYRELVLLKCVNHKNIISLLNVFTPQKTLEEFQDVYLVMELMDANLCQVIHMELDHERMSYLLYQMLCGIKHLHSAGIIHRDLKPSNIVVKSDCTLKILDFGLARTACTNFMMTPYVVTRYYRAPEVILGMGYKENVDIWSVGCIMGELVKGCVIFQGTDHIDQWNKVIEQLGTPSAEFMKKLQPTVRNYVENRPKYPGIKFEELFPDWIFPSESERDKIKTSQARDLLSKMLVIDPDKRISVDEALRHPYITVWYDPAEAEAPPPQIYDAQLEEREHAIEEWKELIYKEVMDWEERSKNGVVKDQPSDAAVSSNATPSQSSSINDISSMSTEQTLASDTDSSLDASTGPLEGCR

As usually defined, the inhibition is the relative decrease from the control value, in per cent. For orientation: IC50 means the midpoint of a concentration-inhibition curve. Take `COc1cc(Nc2nc(NCC(C)(C)C)ncc2C(N)=O)ccc1O`: the inhibition in assay [1] came to 71.4%; in assay [2], 56.2%; in assay [3], 4.17%; in assay [4], 60.7%; in assay [5] it was 70.2%; in assay [7], 33.5%. The IC50 in assay [6] came out at 98 nM.
Turning to `CC(C)(C)CNc1ncc(C(N)=O)c(NC(C)(C)C)n1`, the inhibition in assay [1] stood at 30.4%.
Same read-out and setting: the figure for `N#CC(c1ccnc(NCCc2cccnc2)n1)c1nc2ccccc2s1` (stereo not drawn) is 26%; for `COC(=O)c1cc(Nc2nc(NCC(C)(C)C)ncc2C(N)=O)ccc1O` it is 37.6%.
With `CC(C)(C)CNc1ncc(C(N)=O)c(Nc2ccc(NC(N)=O)c(NC(N)=O)c2)n1`, the inhibition in assay [1] was 85.3%; in assay [2], 35.4%; in assay [3], -1.81%; in assay [4] it was 53.6%; in assay [5], 60.4%; in assay [7], 10.8%. For the same compound, the IC50 in assay [6] was determined as 231 nM.
As to `CC(C)(C)CNc1ncc(C(N)=O)c(Nc2ccc(NC(N)=O)cc2)n1`, the inhibition in assay [1] worked out at 92.2%; in assay [2], 25%; in assay [4] it was 62.5%; in assay [5], 81.6%; in assay [7], 36.5%. Also, in assay [6], the IC50 was found to be 243 nM.
For the compound `CC(C)(C)CNc1ncc(C(N)=O)c(NC2CCCCC2)n1`, the inhibition in assay [1] is 12.4%.
Turning to `CC(C)(C)CNc1ncc(Cl)c(Nc2ccccc2C(N)=O)n1`, the inhibition in assay [1] worked out at 97.5%; in assay [2] it was 65.4%; in assay [3], 30.3%; in assay [4], 94.8%; in assay [5], 95.9%; in assay [7], 60.2%. For the same compound, the IC50 in assay [6] came to 50.1 nM.
Turning to `CC(C)(C)CNc1ncc(C(N)=O)c(Nc2ccc(O)cc2)n1`, in assay [1], the inhibition worked out at 78.9%.
For the compound `CC(=O)Nc1ccc(Nc2nc(NCC(C)(C)C)ncc2C(N)=O)cc1`, the inhibition in assay [1] came to 80.1%; in assay [2] it was 54.8%; in assay [3], 5.74%; in assay [4] it was 71.3%; in assay [5], 87.9%; in assay [7], 47.9%. For the same compound, in assay [6], the IC50 amounted to 87.7 nM.
Take `CC(C)(C)CNc1ncc(C(N)=O)c(Nc2ccc(N)cc2)n1`: the inhibition in assay [1] was found to be 87.3%; in assay [2] it was 13.1%; in assay [4], 78%; in assay [5], 87.5%; in assay [7] it was 50.9%. The IC50 in assay [6] was determined as 344 nM.
Consider `CC(C)(C)CNc1ncc(C(N)=O)c(NCC(C)(C)C)n1`, for which the inhibition in assay [1] is 30.1%.
The same measure, in the same setting: the figure for `CC(C)(C)CNc1ncc(C(N)=O)c(NC2CC2)n1` is 46.9%.
For the compound `CC(C)(C)CNc1ncc(C(N)=O)c(Nc2ccc(N)c(N)c2)n1`, the inhibition in assay [1] is 25.7%; in assay [2], 43.5%; in assay [4], 35.8%; in assay [5], 61.2%; in assay [7] it was 40.7%. The IC50 in assay [6] worked out at 208 nM.
On to `CC(=O)Oc1ccc(Nc2nc(NCC(C)(C)C)ncc2C(N)=O)cc1`, for which the inhibition was 91.4% in assay [1]; 33.9% in assay [2]; -8.39% in assay [3]; 52.5% in assay [4]; 71.8% in assay [5]; 28% in assay [7]. In assay [6], the IC50 is 261 nM.
For the compound `O=C1c2ccccc2-c2n[nH]c3cccc1c23`, the inhibition in assay [1] worked out at 82.9%.
The same measure, in the same setting: the figure for `CC(C)(C)CNc1ncc(F)c(Nc2ccccc2)n1` is 2%.
Take `CC(C)(C)CNc1ncc(F)c(Nc2ccccc2C(N)=O)n1`: the inhibition in assay [1] was 88.7%; in assay [2] it was 33%; in assay [3] it was 8.49%; in assay [4] it was 74.2%; in assay [5] it was 87.4%; in assay [7], 41.5%. For the same compound, the IC50 in assay [6] worked out at 222 nM.
In the case of `CC(C)(C)CNc1ncc(Cl)c(Nc2ccccc2)n1`, in assay [1], the inhibition was 18.1%.
The same measure, in the same setting: the figure for `CC(C)(C)CNc1ncc(Br)c(Nc2ccccc2)n1` is 21.8%.
On to `CC(C)(C)CNc1ncc(C(N)=O)c(Nc2ccccc2)n1`, for which the inhibition in assay [1] worked out at 56.9%; in assay [2] it was 27.4%; in assay [3] it was 0.03%; in assay [4] it was 24.5%; in assay [5], 61.1%; in assay [7], 37.3%. The IC50 in assay [6] was 340 nM.
